From ChEMBL document CHEMBL3124779, “Discovery of ABT-267, a pan-genotypic inhibitor of HCV NS5A” (J Med Chem, 2014)

Experiments:
Hepatitis C virus [1] = experiment: Resistant ratio of EC50 for wild type HCV1a to EC50 for HCV1a harboring NS5A M28T mutant infected in human HuH7 cells; type: functional, Hepacivirus hominis, subtype 1a, Huh-7
Hepatitis C virus [2] = experiment: Resistant ratio of EC50 for wild type HCV1a to EC50 for HCV1a harboring NS5A Q30R mutant infected in human HuH7 cells; type: functional, Hepacivirus hominis, subtype 1a, Huh-7
Homo sapiens [3] = species: Homo sapiens; experiment: Toxicity in HCV1 infected patient assessed as laboratory abnormalities at 5 to 200 mg qd for 3 days; type: organism-based; conditions: in vivo, 72 h
[4] = Clearance in monkey at 1 mg/kg, iv; type: ADME, organism-based, Macaca mulatta; parameters: dose 1 mg/kg, route intravenous; conditions: rhesus monkey, in vivo
Hepatitis C virus [5] = experiment: Antiviral activity against HCV2a infected in human HuH7 cells assessed as inhibition of viral replication after 4 days by luciferase reporter gene assay; type: functional, organism-based, Hepacivirus hominis; conditions: genotype 2a, Huh-7, 96 h
Hepatitis C virus [6] = experiment: Resistant ratio of EC50 for wild type HCV1a to EC50 for HCV1a harboring NS5A Y93C mutant infected in human HuH7 cells; type: functional, Hepacivirus hominis, subtype 1a, Huh-7
Hepatitis C virus [7] = experiment: Antiviral activity against HCV1a harboring NS5A H58D mutant infected in human HuH7 cells assessed as inhibition of viral replication after 4 days by luciferase reporter gene assay; type: functional, Hepacivirus hominis, subtype 1a, Huh-7
[8] = Cmax in monkey at 2.5 mg/kg, po; type: ADME, organism-based, Macaca mulatta; parameters: dose 2.5 mg/kg, route oral; conditions: rhesus monkey, in vivo
Homo sapiens [9] = species: Homo sapiens; experiment: Toxicity in HCV1 infected patient assessed as mortality at 5 to 200 mg qd for 3 days; type: organism-based; conditions: in vivo, 72 h
Homo sapiens [10] = species: Homo sapiens; experiment: Toxicity in HCV1 infected patient assessed as adverse event at 5 to 200 mg qd for 3 days; type: organism-based; conditions: in vivo, 72 h
[11] = Tmax in monkey at 2.5 mg/kg, po; type: ADME, organism-based, Macaca mulatta; parameters: dose 2.5 mg/kg, route oral; conditions: rhesus monkey, in vivo
Hepatitis C virus [12] = experiment: Antiviral activity against HCV1a harboring NS5A M28V mutant infected in human HuH7 cells assessed as inhibition of viral replication after 4 days by luciferase reporter gene assay; type: functional, Hepacivirus hominis, subtype 1a, Huh-7
Hepatitis C virus [13] = experiment: Antiviral activity against HCV1b harboring NS5A L31V and Y93H mutant infected in human HuH7 cells assessed as inhibition of viral replication after 4 days by luciferase reporter gene assay; type: functional, Hepacivirus hominis, genotype 1b, Huh-7
[14] = Oral bioavailability in monkey at 2.5 mg/kg; type: ADME, organism-based, Macaca mulatta; conditions: rhesus monkey, in vivo
Hepatitis C virus [15] = experiment: Antiviral activity against HCV1a harboring NS5A Y93H mutant infected in human HuH7 cells assessed as inhibition of viral replication after 4 days by luciferase reporter gene assay; type: functional, Hepacivirus hominis, subtype 1a, Huh-7
Hepatitis C virus [16] = experiment: Antiviral activity against HCV1b harboring NS5A L31V mutant infected in human HuH7 cells assessed as inhibition of viral replication after 4 days by luciferase reporter gene assay; type: functional, Hepacivirus hominis, genotype 1b, Huh-7
[17] = Half life in HCV1 infected patient at 5 to 200 mg qd for 3 days; type: ADME, organism-based; conditions: human, in vivo
Hepatitis C virus [18] = experiment: Resistant ratio of EC50 for wild type HCV1b to EC50 for HCV1b harboring NS5A L31V and Y93H mutant infected in human HuH7 cells; type: functional, Hepacivirus hominis, genotype 1b, Huh-7
[19] = Metabolic stability in human liver microsomes assessed as compound remaining after 30 mins; type: ADME; conditions: read-out: Stability
[20] = Half life in monkey at 2.5 mg/kg, po; type: ADME, organism-based, Macaca mulatta; parameters: dose 2.5 mg/kg, route oral; conditions: rhesus monkey, in vivo
Hepatitis C virus [21] = experiment: Antiviral activity against HCV1a harboring NS5A Y93C mutant infected in human HuH7 cells assessed as inhibition of viral replication after 4 days by luciferase reporter gene assay; type: functional, Hepacivirus hominis, subtype 1a, Huh-7
Hepatitis C virus [22] = experiment: Resistant ratio of EC50 for wild type HCV1a to EC50 for HCV1a harboring NS5A M28V mutant infected in human HuH7 cells; type: functional, Hepacivirus hominis, subtype 1a, Huh-7
[23] = Tmax in rat at 3 mg/kg, po; type: ADME, organism-based; parameters: dose 3 mg/kg, route oral; conditions: in vivo
Hepatitis C virus [24] = experiment: Resistant ratio of EC50 for wild type HCV1b to EC50 for HCV1b harboring NS5A L31M and Y93H mutant infected in human HuH7 cells; type: functional, Hepacivirus hominis, genotype 1b, Huh-7
[25] = Half life in monkey at 1 mg/kg, iv; type: ADME, organism-based, Macaca mulatta; parameters: dose 1 mg/kg, route intravenous; conditions: rhesus monkey, in vivo
Hepatitis C virus [26] = experiment: Resistant ratio of EC50 for wild type HCV1b to EC50 for HCV1b harboring NS5A R30Q and Y93H mutant infected in human HuH7 cells; type: functional, Hepacivirus hominis, genotype 1b, Huh-7
[27] = Half life in rat at 3 mg/kg, iv; type: ADME, organism-based; parameters: dose 3 mg/kg, route intravenous; conditions: in vivo
Hepatitis C virus [28] = experiment: Antiviral activity against HCV1b Con1 infected in human HuH7 cells assessed as inhibition of viral replication after 4 days by luciferase reporter gene assay in presence of 40% human plasma; type: functional, organism-based, Hepacivirus hominis; conditions: isolate Con1, Huh-7, Plasma, 96 h
Hepatitis C virus [29] = experiment: Antiviral activity against HCV1b Con1 infected in human HuH7 cells assessed as inhibition of viral replication after 4 days by luciferase reporter gene assay; type: functional, organism-based, Hepacivirus hominis; conditions: isolate Con1, Huh-7, 96 h
Hepatitis C virus [30] = experiment: Antiviral activity against HCV6a infected in human HuH7 cells assessed as inhibition of viral replication after 4 days by luciferase reporter gene assay; type: functional, organism-based, Hepacivirus hominis; conditions: genotype 6a, Huh-7, 96 h
Hepatitis C virus [31] = experiment: Antiviral activity against HCV1a harboring NS5A M28T mutant infected in human HuH7 cells assessed as inhibition of viral replication after 4 days by luciferase reporter gene assay; type: functional, Hepacivirus hominis, subtype 1a, Huh-7
Hepatitis C virus [32] = experiment: Antiviral activity against HCV1a harboring NS5A Y93N mutant infected in human HuH7 cells assessed as inhibition of viral replication after 4 days by luciferase reporter gene assay; type: functional, Hepacivirus hominis, subtype 1a, Huh-7
Hepatitis C virus [33] = experiment: Antiviral activity against HCV1b harboring NS5A L31F mutant infected in human HuH7 cells assessed as inhibition of viral replication after 4 days by luciferase reporter gene assay; type: functional, Hepacivirus hominis, genotype 1b, Huh-7
Hepatitis C virus [34] = experiment: Antiviral activity against HCV5a infected in human HuH7 cells assessed as inhibition of viral replication after 4 days by luciferase reporter gene assay; type: functional, organism-based, Hepacivirus hominis; conditions: genotype 5a, Huh-7, 96 h
Hepatitis C virus [35] = experiment: Antiviral activity against HCV1b harboring NS5A L28M and Y93H mutant infected in human HuH7 cells assessed as inhibition of viral replication after 4 days by luciferase reporter gene assay; type: functional, Hepacivirus hominis, genotype 1b, Huh-7
Hepatitis C virus [36] = experiment: Resistant ratio of EC50 for wild type HCV1b to EC50 for HCV1b harboring NS5A L31F mutant infected in human HuH7 cells; type: functional, Hepacivirus hominis, genotype 1b, Huh-7
[37] = Volume of distribution at steady state in rat at 3 mg/kg, iv; type: ADME, organism-based; parameters: dose 3 mg/kg, route intravenous; conditions: in vivo, read-out: Vdss
[38] = Half life in dog at 1 mg/kg, iv; type: ADME, organism-based, Canis lupus familiaris; parameters: dose 1 mg/kg, route intravenous; conditions: in vivo
[39] = Cmax in rat at 3 mg/kg, po; type: ADME, organism-based; parameters: dose 3 mg/kg, route oral; conditions: in vivo
Hepatitis C virus [40] = experiment: Resistant ratio of EC50 for wild type HCV1a to EC50 for HCV1a harboring NS5A Y93H mutant infected in human HuH7 cells; type: functional, Hepacivirus hominis, subtype 1a, Huh-7
[41] = AUC in monkey at 2.5 mg/kg, po; type: ADME, organism-based, Macaca mulatta; parameters: dose 2.5 mg/kg, route oral; conditions: rhesus monkey, plasma
[42] = Volume of distribution at steady state in dog at 1 mg/kg, iv; type: ADME, organism-based, Canis lupus familiaris; parameters: dose 1 mg/kg, route intravenous; conditions: in vivo, read-out: Vdss
[43] = Cmax in dog at 2.5 mg/kg, po; type: ADME, organism-based, Canis lupus familiaris; parameters: dose 2.5 mg/kg, route oral; conditions: in vivo
Hepatitis C virus [44] = experiment: Ratio of EC50 for HCV1b Con1 infected in human HuH7 cells in presence of 40% human plasma to EC50 for HCV1b Con1 infected in human HuH7 cells in absence of 40% human plasma; type: functional, Hepacivirus hominis, isolate Con1, Huh-7
[45] = Volume of distribution at steady state in monkey at 1 mg/kg, iv; type: ADME, organism-based, Macaca mulatta; parameters: dose 1 mg/kg, route intravenous; conditions: rhesus monkey, in vivo, read-out: Vdss
[46] = Lipophilicity, log D of the compound at pH 7.4 by HPLC analysis; type: physicochemical; conditions: buffer
Hepatitis C virus [47] = experiment: Antiviral activity against HCV1b harboring NS5A L28T mutant infected in human HuH7 cells assessed as inhibition of viral replication after 4 days by luciferase reporter gene assay; type: functional, Hepacivirus hominis, genotype 1b, Huh-7

For `COC(=O)N[C@H](C(=O)N1CCC[C@H]1C(=O)Nc1ccc([C@@H]2CC[C@@H](c3ccc(NC(=O)[C@@H]4CCCN4C(=O)[C@@H](NC(=O)OC)C(C)C)cc3)N2c2ccc(C(C)(C)C)cc2)cc1)C(C)C` [OMBITASVIR], which “Ratio EC50” value (Hepatitis C virus [1]) is on record?
The value was 8965.

What about the “Ratio EC50” value (Hepatitis C virus [2]) of the same molecule?
The value was 800.

And the Activity (Homo sapiens [3])?
The Activity was “Non-toxic”.

And the clearance [4]?
The clearance was 6.33 mL/min/kg.

What about the EC50 (Hepatitis C virus [5]) of the same molecule?
Its EC50 is 0.0124 nM.

And the “Ratio EC50” value (Hepatitis C virus [6])?
Its value is 1675.

And the Efficacy (Hepatitis C virus [7])?
The Efficacy was 66%.

What about the Cmax [8] of the same molecule?
The Cmax was 290 ng/mL.

And the Activity (Homo sapiens [9])?
Its Activity is “Non-toxic”.

What about the Activity (Homo sapiens [10]) of the same molecule?
The Activity was “Non-toxic”.

What about the Tmax [11] of the same molecule?
The Tmax was 3.3 h.

What about the Efficacy (Hepatitis C virus [12]) of the same molecule?
Its Efficacy is 87%.

What about the Efficacy (Hepatitis C virus [13]) of the same molecule?
Its Efficacy is 24%.

And the bioavailability [14]?
The bioavailability was 35%.

And the Efficacy (Hepatitis C virus [15])?
The Efficacy was 18%.

What about the Efficacy (Hepatitis C virus [16]) of the same molecule?
The Efficacy was 86%.

What about the half-life [17] of the same molecule?
Its half-life is 25 h.

What about the “Ratio EC50” value (Hepatitis C virus [18]) of the same molecule?
The value was 12323.

What about the remaining at 0.5 h [19] of the same molecule?
Its remaining at 0.5 h is 60%.

And the half-life [20]?
Its half-life is 5 h.

What about the Efficacy (Hepatitis C virus [21]) of the same molecule?
Its Efficacy is 24%.

What about the “Ratio EC50” value (Hepatitis C virus [22]) of the same molecule?
Its value is 58.

And the Tmax [23]?
Its Tmax is 3.7 h.

And the “Ratio EC50” value (Hepatitis C virus [24])?
Its value is 142.

What about the half-life [25] of the same molecule?
The half-life was 4.4 h.

And the “Ratio EC50” value (Hepatitis C virus [26])?
Its value is 284.

What about the half-life [27] of the same molecule?
Its half-life is 9.9 h.

And the EC50 (Hepatitis C virus [28])?
Its EC50 is 0.056 nM.

And the EC50 (Hepatitis C virus [29])?
Its EC50 is 0.005 nM.

What about the EC50 (Hepatitis C virus [30]) of the same molecule?
The EC50 was 0.415 nM.

What about the Efficacy (Hepatitis C virus [31]) of the same molecule?
The Efficacy was 100%.

And the Efficacy (Hepatitis C virus [32])?
The Efficacy was 25%.

What about the Efficacy (Hepatitis C virus [33]) of the same molecule?
The Efficacy was 127%.

What about the EC50 (Hepatitis C virus [34]) of the same molecule?
The EC50 was 0.0043 nM.

And the Efficacy (Hepatitis C virus [35])?
The Efficacy was 104%.

What about the “Ratio EC50” value (Hepatitis C virus [36]) of the same molecule?
Its value is 10.

And the Vd [37]?
Its Vd is 5.9 L/kg.

And the half-life [38]?
The half-life was 7.9 h.

What about the Cmax [39] of the same molecule?
Its Cmax is 10 ng/mL.

What about the “Ratio EC50” value (Hepatitis C virus [40]) of the same molecule?
Its value is 41382.

What about the AUC [41] of the same molecule?
The AUC was 2400 ng·h/mL.

And the Vd [42]?
Its Vd is 1.8 L/kg.

And the Cmax [43]?
Its Cmax is 640 ng/mL.

And the “Ratio EC50” value (Hepatitis C virus [44])?
The value was 11.

And the Vd [45]?
Its Vd is 1.5 L/kg.

And the logD [46]?
Its logD is 5.4.

What about the Efficacy (Hepatitis C virus [47]) of the same molecule?
Its Efficacy is 17%.
